Experiments:
Experiment in all cases: Herbicidal effect by foliage and soil treatment
Type in all cases: in vivo
Conditions in all cases: 10 g ai/10a, evaluated after 14 days
[1] = test system: kediock (Sinapis arvensis)
In short: (§1)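 Post-emergence spray, cotyledon to bifoliate stage; Tween 20/water vehicle, fixed dose per area; greenhouse 19–25 °C; 14 d; visual growth rating vs untreated.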

[2] = test system: redroot pigweed (Amaranthus retroflexus)
In short: as §1

[3] = test system: sicklepod (Cassia obtusifolia)
In short: as §1

[4] = test system: wild chamomile (Matricaria chamomilla)
In short: as §1

[5] = test system: velvetleaf (Abutilon theophrasti)
In short: as §1

[6] = test system: ivyleafspeedwell (Veronica hederaefolia)
In short: as §1

[7] = test system: field bindweed (Convolvulus arvensis)
In short: as §1

[8] = test system: common chickweed (Stellaria media)
In short: as §1

[9] = test system: common blackjack (Bidens pilosa)
In short: as §1

[10] = test system: cleavers (Galium aparine)
In short: as §1

[11] = test system: black nightshade (Solanum nigrum)
In short: as §1

Compound	herbicidal activity rating, SA (Sinapis arvensis) [1]	herbicidal activity rating, AR (Amaranthus retroflexus) [2]	herbicidal activity rating, CO (Cassia obtusifolia) [3]	herbicidal activity rating, MC (Matricaria chamomilla) [4]	herbicidal activity rating, AT (Abutilon theophrasti) [5]	herbicidal activity rating, VH (Veronica hederaefolia) [6]	herbicidal activity rating, CA (Convolvulus arvensis) [7]	herbicidal activity rating, SM (Stellaria media) [8]	herbicidal activity rating, BP (Bidens pilosa) [9]	herbicidal activity rating, GA (Galium aparine) [10]	herbicidal activity rating, SN (Solanum nigrum) [11]
COc1cc(Oc2cccc(C(F)(F)F)c2)nc(C(=O)NO)c1 [Compound I-96, N-hydroxy-4-methoxy-6-{3-(trifluoromethyl)phenoxy}-2-pyridine carboxamide]	5 (percentage of weeds killed was not less than 80%)	5 (percentage of weeds killed was not less than 80%)	5 (percentage of weeds killed was not less than 80%)	1 (percentage of weeds killed was less than 20%)	3 (percentage of weeds killed was not less than 40% and less than 60%)	5 (percentage of weeds killed was not less than 80%)	3 (percentage of weeds killed was not less than 40% and less than 60%)	5 (percentage of weeds killed was not less than 80%)	4 (percentage of weeds killed was not less than 60% and less than 80%)	5 (percentage of weeds killed was not less than 80%)	5 (percentage of weeds killed was not less than 80%)
CONC(=O)c1cc(OC)cc(Oc2cccc(C(F)(F)F)c2)n1 [Compound I-97, N-methoxy-4-methoxy-6-{3-(trifluoromethyl)phenoxy}-2-pyridine carboxamide]	5 (percentage of weeds killed was not less than 80%)	5 (percentage of weeds killed was not less than 80%)	5 (percentage of weeds killed was not less than 80%)	5 (percentage of weeds killed was not less than 80%)	5 (percentage of weeds killed was not less than 80%)	5 (percentage of weeds killed was not less than 80%)	4 (percentage of weeds killed was not less than 60% and less than 80%)	5 (percentage of weeds killed was not less than 80%)	5 (percentage of weeds killed was not less than 80%)	5 (percentage of weeds killed was not less than 80%)	5 (percentage of weeds killed was not less than 80%)
CCCONC(=O)c1cc(OC)cc(Oc2cccc(C(F)(F)F)c2)n1 [Compound I-99, N-(n-propoxy)-4-methoxy-6-{3-(trifluoromethyl)phenoxy}-2-pyridine carboxamide]	5 (percentage of weeds killed was not less than 80%)	5 (percentage of weeds killed was not less than 80%)	5 (percentage of weeds killed was not less than 80%)	4 (percentage of weeds killed was not less than 60% and less than 80%)	5 (percentage of weeds killed was not less than 80%)	5 (percentage of weeds killed was not less than 80%)	5 (percentage of weeds killed was not less than 80%)	5 (percentage of weeds killed was not less than 80%)	5 (percentage of weeds killed was not less than 80%)	5 (percentage of weeds killed was not less than 80%)	5 (percentage of weeds killed was not less than 80%)
C=CCONC(=O)c1cc(OC)cc(Oc2cccc(C(F)(F)F)c2)n1 [Compound I-100]	5 (percentage of weeds killed was not less than 80%)	5 (percentage of weeds killed was not less than 80%)	5 (percentage of weeds killed was not less than 80%)	4 (percentage of weeds killed was not less than 60% and less than 80%)	5 (percentage of weeds killed was not less than 80%)	5 (percentage of weeds killed was not less than 80%)	4 (percentage of weeds killed was not less than 60% and less than 80%)	4 (percentage of weeds killed was not less than 60% and less than 80%)	4 (percentage of weeds killed was not less than 60% and less than 80%)	5 (percentage of weeds killed was not less than 80%)	5 (percentage of weeds killed was not less than 80%)
COc1cc(Oc2cccc(C(F)(F)F)c2)nc(C(=O)NOCCF)c1 [Compound I-102]	5 (percentage of weeds killed was not less than 80%)	5 (percentage of weeds killed was not less than 80%)	5 (percentage of weeds killed was not less than 80%)	3 (percentage of weeds killed was not less than 40% and less than 60%)	4 (percentage of weeds killed was not less than 60% and less than 80%)	5 (percentage of weeds killed was not less than 80%)	4 (percentage of weeds killed was not less than 60% and less than 80%)	4 (percentage of weeds killed was not less than 60% and less than 80%)	5 (percentage of weeds killed was not less than 80%)	5 (percentage of weeds killed was not less than 80%)	5 (percentage of weeds killed was not less than 80%)
CCOCONC(=O)c1cc(OC)cc(Oc2cccc(C(F)(F)F)c2)n1 [Compound I-105]	5 (percentage of weeds killed was not less than 80%)	5 (percentage of weeds killed was not less than 80%)	5 (percentage of weeds killed was not less than 80%)	3 (percentage of weeds killed was not less than 40% and less than 60%)	4 (percentage of weeds killed was not less than 60% and less than 80%)	5 (percentage of weeds killed was not less than 80%)	4 (percentage of weeds killed was not less than 60% and less than 80%)	4 (percentage of weeds killed was not less than 60% and less than 80%)	4 (percentage of weeds killed was not less than 60% and less than 80%)	5 (percentage of weeds killed was not less than 80%)	5 (percentage of weeds killed was not less than 80%)
COc1cc(Oc2cccc(C(F)(F)F)c2)nc(C(=O)NOCC2CC2)c1 [Compound I-107]	5 (percentage of weeds killed was not less than 80%)	5 (percentage of weeds killed was not less than 80%)	5 (percentage of weeds killed was not less than 80%)	3 (percentage of weeds killed was not less than 40% and less than 60%)	4 (percentage of weeds killed was not less than 60% and less than 80%)	5 (percentage of weeds killed was not less than 80%)	4 (percentage of weeds killed was not less than 60% and less than 80%)	5 (percentage of weeds killed was not less than 80%)	3 (percentage of weeds killed was not less than 40% and less than 60%)	5 (percentage of weeds killed was not less than 80%)	5 (percentage of weeds killed was not less than 80%)

Source: patent US6339045B1, “N-(unsubstituted or substituted)-4-substituted-6-(unsubstituted or substituted)phenoxy-2-pyridinecarboxamides or thiocarboxamides, processes for producing the same, and herbicides” (Kureha Kagaku Kogyo Kabushiki Kaisha, priority 1995, dated 2002)
